Here are results for twelve compounds from patent US11986471B2, “Compounds and methods of use” (Tango Therapeutics, Inc., priority 2018, dated 2024).

The target in assay [1] is T1, PRMT5 (Homo sapiens, UniProt O14744).
T1 construct: purchased Viva (custom protein)
Description: PRMT5 IC50 assay with no cofactor. Format: biochemical. Particulars: read-out: No Co-factor IC50. The procedure, abridged: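 Cofactor-free, SAM and MTA formats; IC50 μM; Ki = IC50/1.5 for SAM, IC50/13.5 for MTA.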

For assay [2], the target named is T1, PRMT5. The experiment in a line: PRMT5 IC50 assay in the presence of SAM as cofactor. Format: biochemical. The method, boiled down: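 Ki conversion: SAM arm, Ki=IC50/1.5; MTA arm, Ki=IC50/13.5. No-cofactor arm reported as IC50 only. Selectivity expressed as Ki(SAM)/Ki(MTA).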
The next assay deals with HAP1 MTAP-deleted. The experiment in a line: SDMA in-cell western assay, HAP1 MTAP-deleted cell line. Format: cell-based. Particulars: for IC50: Homo sapiens, HAP1 MTAP-deleted cell line; for MTAP Intact/Deleted Ratio: IC50 ratio HAP1 MTAP-intact / HAP1 MTAP-deleted. The method, boiled down: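 IC50 from SDMA in-cell western; HAP1 line lacking MTAP (null), paired isogenically with MTAP-intact HAP1 expressing endogenous MTAP.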

A further assay concerns HAP1 MTAP-intact. The experiment in a line: SDMA in-cell western assay, HAP1 MTAP-intact cell line. In kind it is cell-based. To be noted: Homo sapiens. The method, boiled down: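 HAP1 isogenic pair: endogenous MTAP vs MTAP-null. Readout SDMA by in-cell western; IC50 per line. Ratio ≥3 fold = MTAP-selective.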
Assay [3] addresses T1, PRMT5. The experiment in a line: PRMT5 IC50 assay in the presence of MTA as cofactor. Format: biochemical. Particulars: for IC50: PRMT5, MTA as cofactor; for SAM/MTA Ratio: ratio between Ki in the presence of SAM and Ki in the presence of MTA. The method, boiled down: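 Three cofactor conditions are run: SAM-bound, MTA-bound and cofactor-free enzyme. IC50 is read from each; for the SAM and MTA arms it is divided by 1.5 and 13.5 respectively to give Ki.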

T1 sequence (O14744 whole entry): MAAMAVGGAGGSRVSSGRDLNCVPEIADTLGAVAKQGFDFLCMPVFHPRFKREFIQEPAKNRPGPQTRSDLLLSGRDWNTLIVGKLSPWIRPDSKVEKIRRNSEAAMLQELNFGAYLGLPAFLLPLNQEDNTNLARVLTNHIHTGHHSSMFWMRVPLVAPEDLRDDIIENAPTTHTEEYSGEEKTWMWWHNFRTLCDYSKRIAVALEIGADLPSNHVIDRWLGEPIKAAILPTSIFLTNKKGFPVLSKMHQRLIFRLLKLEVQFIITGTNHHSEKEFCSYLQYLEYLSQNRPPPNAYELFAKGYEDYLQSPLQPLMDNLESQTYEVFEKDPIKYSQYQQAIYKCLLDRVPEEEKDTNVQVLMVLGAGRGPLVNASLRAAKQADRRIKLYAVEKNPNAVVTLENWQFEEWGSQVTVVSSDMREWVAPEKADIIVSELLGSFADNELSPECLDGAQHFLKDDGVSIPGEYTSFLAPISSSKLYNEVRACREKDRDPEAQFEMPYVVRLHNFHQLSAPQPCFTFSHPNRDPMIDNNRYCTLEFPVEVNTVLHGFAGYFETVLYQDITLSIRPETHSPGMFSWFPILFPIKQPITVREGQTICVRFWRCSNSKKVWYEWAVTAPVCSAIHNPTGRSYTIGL
T1 sequence (Q9BQA1 whole entry partner): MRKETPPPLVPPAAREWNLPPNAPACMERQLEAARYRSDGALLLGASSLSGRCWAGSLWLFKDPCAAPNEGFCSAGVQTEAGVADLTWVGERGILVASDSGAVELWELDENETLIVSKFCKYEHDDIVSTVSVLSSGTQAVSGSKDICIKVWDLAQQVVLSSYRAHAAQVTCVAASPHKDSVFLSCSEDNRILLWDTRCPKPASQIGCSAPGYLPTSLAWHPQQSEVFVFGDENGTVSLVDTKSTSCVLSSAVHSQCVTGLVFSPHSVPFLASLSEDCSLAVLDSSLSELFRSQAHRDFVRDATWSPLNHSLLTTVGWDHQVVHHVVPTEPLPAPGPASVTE

Usually IC50 stands for the concentration needed to halve the response being measured. `COCCN(C)c1nc(NC2COC2)cc(C(=O)NC[C@H](O)CN2CCc3c(ccc(OCc4cnco4)c3Cl)C2)n1` [Compound 314]: the IC50 is 500 to 5000 nM on PRMT5 [1]; 50 to 500 nM at PRMT5 [2]; 1000 to 10000 nM in the assay with HAP1 MTAP-deleted; no less than 10000 nM in the assay on HAP1 MTAP-intact; 50 to 500 nM at PRMT5 [3]. The “MTAP Intact/Deleted Ratio” value in the assay on HAP1 MTAP-deleted is “C* (an IC50 ratio of less than 3 fold between the IC50 in the HAP1 MTAP-intact cell line and the HAP1 MTAP-deleted cell line)”. Further, at PRMT5 [3], the “SAM/MTA Ratio” value is “A (a Ki ratio greater than or equal to 10 fold between the Ki in the presence of SAM and the Ki in the presence of MTA)”.
As for `CN(C)CCOc1cc(C(=O)NC[C@H](O)CN2CCc3cc(OCc4cnco4)ccc3C2)cc(NC2CCC2)n1` [Compound 315, (S)-2-(cyclobutylamino)-6-(2-(dimethylamino)ethoxy)-N-(2-hydroxy-3-(6-(oxazol-5-ylmethoxy)-3,4-dihydroisoquinolin-2(1H)-yl)propyl)isonicotinamide], the IC50 is 500 to 5000 nM at PRMT5 [1]; 50 to 500 nM at PRMT5 [2]; less than 1000 nM in the assay with HAP1 MTAP-deleted; 1000 to 10000 nM in the assay with HAP1 MTAP-intact; less than 50 nM at PRMT5 [3]. In addition, the “MTAP Intact/Deleted Ratio” value in the assay on HAP1 MTAP-deleted is “C* (an IC50 ratio of less than 3 fold between the IC50 in the HAP1 MTAP-intact cell line and the HAP1 MTAP-deleted cell line)”. On PRMT5 [3], the “SAM/MTA Ratio” value was “A (a Ki ratio greater than or equal to 10 fold between the Ki in the presence of SAM and the Ki in the presence of MTA)”.
On to `O=C(NC[C@H](O)CN1CCc2c(ccc(OCc3cnco3)c2Cl)C1)c1ccnc(NC2CCC(F)(F)C2)c1` (stereo partly drawn) [Compound 316, N—((S)-3-(5-chloro-6-(oxazol-5-ylmethoxy)-3,4-dihydroisoquinolin-2(1H)-yl)-2-hydroxypropyl)-2-((3,3-difluorocyclopentyl)amino)isonicotinamide], for which the IC50 is no less than 5000 nM on PRMT5 [1]; 50 to 500 nM at PRMT5 [2]; no less than 10000 nM with HAP1 MTAP-deleted; no less than 10000 nM in the assay on HAP1 MTAP-intact; 50 to 500 nM on PRMT5 [3]. In addition, the “MTAP Intact/Deleted Ratio” value in the assay with HAP1 MTAP-deleted was “C* (an IC50 ratio of less than 3 fold between the IC50 in the HAP1 MTAP-intact cell line and the HAP1 MTAP-deleted cell line)”. For the same compound, the “SAM/MTA Ratio” value at PRMT5 [3] is “A (a Ki ratio greater than or equal to 10 fold between the Ki in the presence of SAM and the Ki in the presence of MTA)”.
For `O=C(NC[C@H](O)CN1CCc2c(ccc(OCc3cnco3)c2Cl)C1)c1ccnc(NC2CC(C(F)F)C2)c1` (stereo partly drawn) [Compound 317, (S)—N-(3-(5-chloro-6-(oxazol-5-ylmethoxy)-3,4-dihydroisoquinolin-2(1H)-yl)-2-hydroxypropyl)-2-((3-(difluoromethyl)cyclobutyl)amino)isonicotinamide], the IC50 was no less than 5000 nM at PRMT5 [1]; 500 to 5000 nM at PRMT5 [2]; no less than 10000 nM in the assay with HAP1 MTAP-deleted; no less than 10000 nM with HAP1 MTAP-intact; 50 to 500 nM on PRMT5 [3]. For the same compound, the “MTAP Intact/Deleted Ratio” value in the assay with HAP1 MTAP-deleted was “C* (an IC50 ratio of less than 3 fold between the IC50 in the HAP1 MTAP-intact cell line and the HAP1 MTAP-deleted cell line)”. At PRMT5 [3], the “SAM/MTA Ratio” value is “A (a Ki ratio greater than or equal to 10 fold between the Ki in the presence of SAM and the Ki in the presence of MTA)”.
As to `CCC(=O)N1CCN(c2nc(NC3COC3)cc(C(=O)NC[C@H](O)CN3CCc4c(ccc(OCc5cnco5)c4Cl)C3)n2)CC1` [Compound 318, (S)—N-(3-(5-chloro-6-(oxazol-5-ylmethoxy)-3N-dihydroisoquinolin-2(1H)-yl)-2-hydroxypropyl)-6-(oxetan-3-ylamino)-2-(4-propionylpiperazin-1-yl)pyrimidine-4-carboxamide], the IC50 on PRMT5 [1] was 500 to 5000 nM; on PRMT5 [2] it was 50 to 500 nM; in the assay on HAP1 MTAP-deleted, 1000 to 10000 nM; in the assay on HAP1 MTAP-intact it was no less than 10000 nM; at PRMT5 [3] it was 50 to 500 nM. Also, the “MTAP Intact/Deleted Ratio” value in the assay on HAP1 MTAP-deleted is “C* (an IC50 ratio of less than 3 fold between the IC50 in the HAP1 MTAP-intact cell line and the HAP1 MTAP-deleted cell line)”. The “SAM/MTA Ratio” value at PRMT5 [3] is “A (a Ki ratio greater than or equal to 10 fold between the Ki in the presence of SAM and the Ki in the presence of MTA)”.
Consider `CC(C)(C)N1CCN(c2cc(C(=O)NC[C@H](O)CN3CCc4c(ccc(OCc5cnco5)c4Cl)C3)cc(NC3CCC3)n2)CC1` [Compound 319, (S)-2-(4-(tert-butyl)piperazin-1-yl)-N-(3-(5-chloro-6-(oxazol-5-ylmethoxy)-3N-dihydroisoquinolin-2(1H)-yl)-2-hydroxypropyl)-6-(cyclobutylamino)isonicotinamide], for which the IC50 on PRMT5 [1] is 500 to 5000 nM; at PRMT5 [2] it was 50 to 500 nM; with HAP1 MTAP-deleted, no less than 10000 nM; in the assay with HAP1 MTAP-intact, no less than 10000 nM; on PRMT5 [3], 50 to 500 nM. The “MTAP Intact/Deleted Ratio” value with HAP1 MTAP-deleted is “C* (an IC50 ratio of less than 3 fold between the IC50 in the HAP1 MTAP-intact cell line and the HAP1 MTAP-deleted cell line)”. Further, the “SAM/MTA Ratio” value on PRMT5 [3] was “A (a Ki ratio greater than or equal to 10 fold between the Ki in the presence of SAM and the Ki in the presence of MTA)”.
Regarding `O=C(NC[C@H](O)CN1CCc2cc(OCc3cnco3)ccc2C1)c1cc(NC2CCC2)nc(N2CCCCC2)c1` [Compound 320, (S)-2-(cyclobutylamino)-N-(2-hydroxy-3-(6-(oxazol-5-ylmethoxy)-3,4-dihydroisoquinolin-2(1H)-yl)propyl)-6-(piperidin-1-yl)isonicotinamide], the IC50 on PRMT5 [1] lay in the range of 500 to 5000 nM; on PRMT5 [2] it was 500 to 5000 nM; with HAP1 MTAP-deleted, 1000 to 10000 nM; with HAP1 MTAP-intact, 1000 to 10000 nM; at PRMT5 [3], 500 to 5000 nM. Further, the “MTAP Intact/Deleted Ratio” value in the assay with HAP1 MTAP-deleted is “C* (an IC50 ratio of less than 3 fold between the IC50 in the HAP1 MTAP-intact cell line and the HAP1 MTAP-deleted cell line)”.
As to `CC(=O)N1CCN(c2nc(NC3COC3)cc(C(=O)NC[C@H](O)CN3CCc4cc(OCc5cnco5)ccc4C3)n2)CC1` [Compound 321], the IC50 on PRMT5 [1] was 500 to 5000 nM; at PRMT5 [2] it was 50 to 500 nM; in the assay on HAP1 MTAP-deleted, 1000 to 10000 nM; in the assay with HAP1 MTAP-intact it was no less than 10000 nM; at PRMT5 [3] it was 50 to 500 nM. Further, in the assay with HAP1 MTAP-deleted, the “MTAP Intact/Deleted Ratio” value was “C* (an IC50 ratio of less than 3 fold between the IC50 in the HAP1 MTAP-intact cell line and the HAP1 MTAP-deleted cell line)”. Besides, the “SAM/MTA Ratio” value on PRMT5 [3] was “A (a Ki ratio greater than or equal to 10 fold between the Ki in the presence of SAM and the Ki in the presence of MTA)”.
With `O=C(NC[C@H](O)CN1CCc2c(ccc(OCc3cnco3)c2Cl)C1)c1ccnc(NC2CCC(F)C2)c1` (some centres unmarked) [Compound 322], the IC50 on PRMT5 [1] was no less than 5000 nM; on PRMT5 [2], 50 to 500 nM; in the assay with HAP1 MTAP-deleted, no less than 10000 nM; with HAP1 MTAP-intact it was no less than 10000 nM; at PRMT5 [3] it was 50 to 500 nM. In the assay with HAP1 MTAP-deleted, the “MTAP Intact/Deleted Ratio” value is “C* (an IC50 ratio of less than 3 fold between the IC50 in the HAP1 MTAP-intact cell line and the HAP1 MTAP-deleted cell line)”. Further, the “SAM/MTA Ratio” value on PRMT5 [3] was “A (a Ki ratio greater than or equal to 10 fold between the Ki in the presence of SAM and the Ki in the presence of MTA)”.
Take `CC(C)C(=O)N1CCN(c2nc(NC3COC3)cc(C(=O)NC[C@H](O)CN3CCc4c(ccc(OCc5cnco5)c4Cl)C3)n2)CC1` [Compound 323, (S)—N-(3-(5-chloro-6-(oxazol-5-ylmethoxy)-3N-dihydroisoquinolin-2(1H)-yl)-2-hydroxypropyl)-2-(4-isobutyrylpiperazin-1-yl)-6-(oxetan-3-ylamino)pyrimidine-4-carboxamide]: the IC50 on PRMT5 [1] is 500 to 5000 nM; on PRMT5 [2] it was 50 to 500 nM; in the assay with HAP1 MTAP-deleted, 1000 to 10000 nM; in the assay on HAP1 MTAP-intact it was no less than 10000 nM; at PRMT5 [3] it was 50 to 500 nM. Besides, the “MTAP Intact/Deleted Ratio” value with HAP1 MTAP-deleted was “B* (an IC50 ratio greater than or equal to 3 fold but lower than 10 fold between the IC50 in the HAP1 MTAP-intact cell line and the HAP1 MTAP-deleted cell line)”. At PRMT5 [3], the “SAM/MTA Ratio” value is “A (a Ki ratio greater than or equal to 10 fold between the Ki in the presence of SAM and the Ki in the presence of MTA)”.
For `CCN1CCN(c2nc(NC3COC3)cc(C(=O)NC[C@H](O)CN3CCc4c(ccc(OCc5cnco5)c4Cl)C3)n2)CC1` [Compound 324], the IC50 at PRMT5 [1] is 500 to 5000 nM; on PRMT5 [2], 50 to 500 nM; with HAP1 MTAP-deleted, 1000 to 10000 nM; in the assay on HAP1 MTAP-intact it was no less than 10000 nM; on PRMT5 [3], 50 to 500 nM. The “MTAP Intact/Deleted Ratio” value in the assay with HAP1 MTAP-deleted is “C* (an IC50 ratio of less than 3 fold between the IC50 in the HAP1 MTAP-intact cell line and the HAP1 MTAP-deleted cell line)”. Also, the “SAM/MTA Ratio” value on PRMT5 [3] was “A (a Ki ratio greater than or equal to 10 fold between the Ki in the presence of SAM and the Ki in the presence of MTA)”.
For the compound `O=C(NC[C@H](O)CN1CCc2cc(OCc3cnco3)ccc2C1)c1cc(NC2COC2)nc(N2CCCCC2)n1` [Compound 325, (S)—N-(2-hydroxy-3-(6-(oxazol-5-ylmethoxy)-3,4-dihydroisoquinolin-2(1H)-yl)propyl)-6-(oxetan-3-ylamino)-2-(piperidin-1-yl)pyrimidine-4-carboxamide], the IC50 at PRMT5 [1] was 500 to 5000 nM; on PRMT5 [2], 50 to 500 nM; in the assay on HAP1 MTAP-deleted, less than 1000 nM; with HAP1 MTAP-intact, 1000 to 10000 nM; at PRMT5 [3], 50 to 500 nM. The “MTAP Intact/Deleted Ratio” value with HAP1 MTAP-deleted is “C* (an IC50 ratio of less than 3 fold between the IC50 in the HAP1 MTAP-intact cell line and the HAP1 MTAP-deleted cell line)”. In addition, the “SAM/MTA Ratio” value at PRMT5 [3] was “A (a Ki ratio greater than or equal to 10 fold between the Ki in the presence of SAM and the Ki in the presence of MTA)”.
